Tests used:
[1] = test system: T1, wild-type (GRR) human STING cGAMP binding domain (residues 155-341); test: Differential Scanning Fluorimetry (DSF), stability of STING protein against thermal denaturation; conditions: 100 uM compound, 3 uM target protein
T1 construct: His-TEV-hSTING (WT); TEV protease cleavage site (N); made in house; host or cells: E. coli BL21 DE3
Procedure: Dye fluorescence is quenched in aqueous environment and increases upon association of the dye with the hydrophobic parts of the unfolding protein. […] The inflection point of the curve represents the “melting” temperature of the protein (Tm) which is calculated numerically using the Boltzmann equation.
Method: The thermal stability of the STING protein was measured using a specific expression construct of the cGAMP binding domain of wild-type (GRR) human STING comprising residues 155-341 and a N-terminal 8x His-tag in assay buffer containing 20 mM Tris, 150 mM NaCl at pH7.5.
The assay uses Hard-Shell®PCR Plates 384-Well CLR/WHT (Catalog #HSP3805, BIO-RAD), Microseal®‘B’ Adhesive Seals for PCR Plates (Catalog #MSB-1001, BIO-RAD) and was run on a CFX384 Real-Time System (Bio-Rad).
A DMSO stock solution of SYPRO orange (SIGMA S5692-500UL) was prepared.
Compound stock solutions (10 mM in DMSO) were diluted 1:2 in DMSO to an intermediate compound concentration of 5 mM and then further diluted 1:40 in assay buffer resulting in a compound concentration of 125 μM and 2.5% DMSO.
Fluorescent dye stock solution (5000×SYPRO Orange) was then mixed with target protein and buffer to a concentration of 15 uM Protein and 25×SYPRO Orange. 2 ul of this protein-dye-mixture was added to 8 ul compound solution. Final volume was 10 uL. 3-6 well positions were used as negative control (protein with 2% DMSO). The plates were prepared for duplicate measurement and centrifuged for 2 min at 1000 g. In the measurement, 160 cycles of 0.5° C. were used (temperature ramp 15 s/cycle, 15° C. to 95° C.).
Final Assay concentrations for compound characterization were as follows:
100 uM compound, 3 uM target protein, 5×SYPRO Orange, 2% DMSO in 10 ul. All dispensing steps were performed using a HamiltonStar pipetting robot (Hamilton).
Dissociation curves were processed in Bio-Rad CFX Manager. Peak type was set to “negative”.
Compound codes for screen were assigned in the plate layout.
Two replicates of TM measurements were averaged, and the standard deviation was calculated. In cases of SD>1.5° C. the measurement was repeated.
The melting point (Tm) obtained for STING protein alone was subtracted from T obtained for protein incubated with ligand to generate ΔTm values.
Protein production and purification: The protein used for the biophysical experiments was a recombinant human STING protein comprising its cytosolic ectodomain. A codon optimized DNA sequence (for expression in Escherichia coli) encoding amino acid residues 155 to 341 (Swiss Prot Q86WV6) of human STING (WT) was synthesized by GeneArt (Regensburg, Germany) and inserted into a pET17b E. coli expression vector. The protein construct encodes an N-terminal 8× His-tag followed by tobacco etch virus protease (TEV) cleavage site and the above STING gene sequence. The resulting protein sequence for the used STING variant is listed below:
For expression of recombinant human STING above construct was transformed into E. coli BL21 DE3 strain and grown in shake flasks in LB-medium at 37° C. Expression was induced by addition of isopropyl β-D-1-thiogalactopyranoside to a final concentration of 1 mM and cultures shaken overnight. Cell pellets were centrifuged and stored at −70° C. until further use. Protein was purified by cell thawing in lysis buffer (20 mM TRIS-HCl, pH 8, 300 mM NaCl, 2 mM mercaptoethanol, 20 mM imidazole, Complete Protease Inhibitor (Roche) and DNase (Roche)), followed by metal affinity purification using Ni-NTA resins and elution buffer consisting of 20 mM TRIS-HCl, pH 8, 300 mM NaCl, 2 mM mercaptoethanol, 300 mM imidazole and size exclusion chromatography in running buffer (20 mM TRIS-HCl, pH 8, 100 mM NaCl, 2 mM DTT). The peak fraction was collected and concentrated to 2.5 mg/mL.

STING = test: IP10 production in human dermal microvascular endothelial cells (MVEC) after double-stranded DNA stimulation; assay type: cell-based; conditions: IP10 production after dsDNA stimulation; rounded average of multiple experiments; read-out: Inhibition of Human microvascular endothelial cells (IC50 nM)
Description: Interferon gamma-induced protein 10 (IP-10) also known as C—X—C motif chemokine ligand 10 (CXCL10) is produced as one of the responses of the presence of double-stranded DNA in the cytoplasm and resulting STING activity. In some diseases, imbalanced STING activation can result to damage in the endothelium, for example in SAVI patients (Liu Yet al. Activated STING in a vascular and pulmonary syndrome. N Engl J Med. 2014 Aug. 7; 371(6):507-518. doi: 10.1056/NEJMoa1312625). To test the efficacy of the inventive STING inhibitors, experiments in human microvascular endothelial cells (HMVEC) are performed with the inventive compounds. Dermal HMVEC are available from Lonza, US. They are cultured in 96 well plates according to the manufacturer's instructions. Using typical protocols, the cells are serum starved and then treated with the compound for 1 hour. The cells are then treated with 400 ng/mL of dsDNA as a complex with Lipofectamine 3000 (from Thermo Fisher Scientific Inc., Waltham, MA, USA) and incubated for 6 hours. The supernatants are collected and assayed for IP10 production.
Detection of IP10 is done using the U-PLEX HUMAN IP-10 ASSAY from Meso Scale Diagnostics (1601 Research Boulevard, Rockville, Maryland 20850-3173, USA) according to manufacturer's protocols.

| Structure (SMILES) | DSF ΔTm (K) [1] [K] | IC50 (STING) [nM] |
| --- | --- | --- |
| CC[P@](C)(=O)c1ccc(-c2nc(-c3cccc4nn(-c5cc(C(F)(F)F)n(C)n5)cc34)c(C3CC3)n2C)c(OC(F)(F)F)c1 [Example 10, 4-(5-cyclopropyl-2-{4-[(S)-ethyl(methyl)phosphoryl]-2-(trifluoromethoxy)phenyl}-1-methyl-1H-imidazol-4-yl)-2-[1-methyl-5-(trifluoromethyl)-1H-pyrazol-3-yl]-2H-indazole] | 30 | 11 |
| COc1nn(C2CC2)cc1-n1cc2c(-c3nc(-c4ccc(C(=O)N(C)C)cc4OC(F)(F)F)n(C)c3C3CC3)cccc2n1 [Example 15, 4-{5-cyclopropyl-4-[2-(1-cyclopropyl-3-methoxy-1H-pyrazol-4-yl)-2H-indazol-4-yl]-1-methyl-1H-imidazol-2-yl}-N,N-dimethyl-3-(trifluoromethoxy)benzamide] | 25 | – |
| COc1nn(C2CC2)cc1-n1cc2c(-c3nn(-c4ccc(P(C)(C)=O)cc4C)c(C)c3C(C)C)cccc2n1 [Example 9, 2-(1-cyclopropyl-3-methoxy-1H-pyrazol-4-yl)-4-{1-[4-(dimethylphosphoryl)-2-methylphenyl]-5-methyl-4-(propan-2-yl)-1H-pyrazol-3-yl}-2H-indazole] | 22 | – |
| COc1nn(C)cc1-n1cc2c(-c3nc(-c4ccc(C(=O)N(C)C)cc4OC(F)(F)F)n(C)c3C3CC3)cccc2n1 [Example 3, 4-{5-cyclopropyl-4-[2-(3-methoxy-1-methyl-1H-pyrazol-4-yl)-2H-indazol-4-yl]-1-methyl-1H-imidazol-2-yl}-N,N-dimethyl-3-(trifluoromethoxy)benzamide] | 26 | – |
| CCP(=O)(CC)c1ccc(-c2nc(-c3cccc4nn(-c5cc(C(F)(F)F)n(C)n5)cc34)c(C3CC3)n2C)c(OC(F)(F)F)c1 [Example 17, 4-{5-cyclopropyl-2-[4-(diethylphosphoryl)-2-(trifluoromethoxy)phenyl]-1-methyl-1H-imidazol-4-yl}-2-[1-methyl-5-(trifluoromethyl)-1H-pyrazol-3-yl]-2H-indazole] | 29 | – |
| COc1nn(C2CC2)cc1-n1cc2c(-c3nc(-c4ccc(C(N)=O)cc4OC(F)(F)F)n(C)c3C3CC3)cccc2n1 [Example 16, 4-{5-cyclopropyl-4-[2-(1-cyclopropyl-3-methoxy-1H-pyrazol-4-yl)-2H-indazol-4-yl]-1-methyl-1H-imidazol-2-yl}-3-(trifluoromethoxy)benzamide] | 32 | – |
| Cn1nc(-n2cc3c(-c4nc(-c5ccc(P(C)(C)=O)cc5OC(F)(F)F)n(C)c4C4CC4)cccc3n2)cc1C(F)F [Example 2, 4-{5-cyclopropyl-2-[4-(dimethylphosphoryl)-2-(trifluoromethoxy)phenyl]-1-methyl-1H-imidazol-4-yl}-2-[5-(difluoromethyl)-1-methyl-1H-pyrazol-3-yl]-2H-indazole] | 30 | – |
| COc1nn(CC(C)(C)O)cc1-n1cc2c(-c3nc(-c4ccc(C(N)=O)cc4OC(F)(F)F)n(C)c3C3CC3)cccc2n1 [Example 11, 4-(5-cyclopropyl-4-{2-[1-(2-hydroxy-2-methylpropyl)-3-methoxy-1H-pyrazol-4-yl]-2H-indazol-4-yl}-1-methyl-1H-imidazol-2-yl)-3-(trifluoromethoxy)benzamide] | 26 | – |
| CC[P@](C)(=O)c1ccc(-c2nc(-c3cccc4[nH]c(-c5cc(C(F)(F)F)n(C)n5)nc34)c(C3CC3)n2C)c(OC(F)(F)F)c1 [Example 18, 4-(5-cyclopropyl-2-{4-[(S)-ethyl(methyl)phosphoryl]-2-(trifluoromethoxy)phenyl}-1-methyl-1H-imidazol-4-yl)-2-[1-methyl-5-(trifluoromethyl)-1H-pyrazol-3-yl]-1H-1,3-benzodiazole] | 34 | – |
| CC[P@](C)(=O)c1ccc(-c2nc(-c3cccc4nn(-c5cc(C6CC6)n(C)n5)cc34)c(C3CC3)n2C)c(OC(F)(F)F)c1 [Example 19, 2-(5-cyclopropyl-1-methyl-1H-pyrazol-3-yl)-4-(5-cyclopropyl-2-{4-[(S)-ethyl(methyl)phosphoryl]-2-(trifluoromethoxy)phenyl}-1-methyl-1H-imidazol-4-yl)-2H-indazole] | 28 | – |
| CCOc1nn(C)cc1-n1cc2c(-c3nc(-c4ccc(C(N)=O)cc4OC(F)(F)F)n(C)c3C3CC3)cccc2n1 [Example 4, 4-{5-cyclopropyl-4-[2-(3-ethoxy-1-methyl-1H-pyrazol-4-yl)-2H-indazol-4-yl]-1-methyl-1H-imidazol-2-yl}-3-(trifluoromethoxy)benzamide] | 30 | – |
| COCc1cc(C(N)=O)ccc1-c1nc(-c2cccc3nn(-c4cn(C5CC5)nc4OC)cc23)c(C2CC2)n1C [Example 12, 4-{5-cyclopropyl-4-[2-(1-cyclopropyl-3-methoxy-1H-pyrazol-4-yl)-2H-indazol-4-yl]-1-methyl-1H-imidazol-2-yl}-3-(methoxymethyl)benzamide] | 25 | – |
| COc1nn(C2CC2)cc1-n1cc2c(-c3nc(-c4ccc(C(N)=O)cc4OCC(F)F)n(C)c3C3CC3)cccc2n1 [Example 6, 4-{5-cyclopropyl-4-[2-(1-cyclopropyl-3-methoxy-1H-pyrazol-4-yl)-2H-indazol-4-yl]-1-methyl-1H-imidazol-2-yl}-3-(2,2-difluoroethoxy)benzamide] | 28 | – |
| CC[P@@](C)(=O)c1ccc(-c2nc(-c3cccc4nn(-c5cn(C6CC6)nc5OC)cc34)c(C3CC3)n2C)c(OC(F)(F)F)c1 [Example 13, 4-(5-cyclopropyl-2-{4-[(R)-ethyl(methyl)phosphoryl]-2-(trifluoromethoxy)phenyl}-1-methyl-1H-imidazol-4-yl)-2-(1-cyclopropyl-3-methoxy-1H-pyrazol-4-yl)-2H-indazole] | 27 | – |
| CC[P@](C)(=O)c1ccc(-c2nc(-c3cccc4nn(-c5cn(C6CC6)nc5OC)cc34)c(C3CC3)n2C)c(OC(F)(F)F)c1 [Example 14, 4-(5-cyclopropyl-2-{4-[(S)-ethyl(methyl)phosphoryl]-2-(trifluoromethoxy)phenyl}-1-methyl-1H-imidazol-4-yl)-2-(1-cyclopropyl-3-methoxy-1H-pyrazol-4-yl)-2H-indazole] | 30 | – |
| Cn1nc(-n2cc3c(-c4nc(-c5ccc(C(N)=O)cc5OC(F)(F)F)n(C)c4C4CC4)cccc3n2)cc1C(F)(F)F [Example 8, 4-(5-cyclopropyl-1-methyl-4-{2-[1-methyl-5-(trifluoromethyl)-1H-pyrazol-3-yl]-2H-indazol-4-yl}-1H-imidazol-2-yl)-3-(trifluoromethoxy)benzamide] | 32 | – |

— patent publication US20250333398A1, “MONOARYL AND HETARYL SUBSTITUTED INDAZOLES AND BENZIMIDAZOLES AS STING ANTAGONISTS AND THE USE THEREOF AS MEDICAMENT” (Boehringer Ingelheim International GmbH, priority 2024, published 2025)
